The text below walks through data of patent publication EP0342850A1, “Enantiomeric glutaramide diuretic agents” (Pfizer Limited, priority 1988, dated 1989).

Structures are written as SMILES.

One assay concerns mice. Description: induction of natriuresis in mice in vivo (procedure of European patent application 0274234). Particulars: dose (mg/kg) given. An excerpt: (§1) Appropriate reagents and conditions for the various coupling and deprotection steps, described above, together with procedures for determining the biological activity of the products of formula (II) and appropriate pharmaceutical compositions and dosage ranges for their use are described in European patent application no. 0274234.
(§2) The activity of the racemate and separated enantiomers of the cis-4-{1-[2-carboxy-3-(2-methoxyethoxy)propyl]-1-cyclopentanecarboxamido}-1-cyclohexanecarboxylic acid was assessed by measuring their ability to inhibit the neutral endopeptidase E.C.3.4.24.11 in vitro or to induce natriuresis in mice in vivo following the procedure described in European patent application 0274234.

For assay [1], the system named is neutral endopeptidase E.C.3.4.24.11. Description: inhibition of neutral endopeptidase E.C.3.4.24.11 in vitro (procedure of European patent application 0274234). Particulars: general statement on the separated enantiomers of the diacid. The assay is classed as biochemical.
From the text: as §1, §2

On to `COCCOCC(CC1(C(=O)N[C@H]2CC[C@@H](C(=O)O)CC2)CCCC1)C(=O)O` (mixture of isomers) [(±) R,S, cis-4-{1-[2-carboxy-3-(2-methoxyethoxy)propyl]-1-cyclopentanecarboxamido}-1-cyclohexanecarboxylic acid], for which the “Natriuresis in mouse (i.v.)” value in the assay on mice was “active at 3 mg/kg”.

Regarding `COCCOC[C@H](CC1(C(=O)N[C@H]2CC[C@@H](C(=O)O)CC2)CCCC1)C(=O)O` (racemic) [(±) S, (S)-cis-4-{1-[2-Carboxy-3-(2-methoxyethoxy)propyl]-1-cyclopentanecarboxamido}-1-cyclohexanecarboxylic acid], in the assay on mice, the “Natriuresis in mouse (i.v.)” value is “active at 1.5 mg/kg”.

Take `COCCOCC(CC1(C(=O)N[C@H]2CC[C@@H](C(=O)O)CC2)CCCC1)C(=O)O` (relative stereo) [(-) R, cis-4-{1-[2-carboxy-3-(2-methoxyethoxy)propyl]-1-cyclopentanecarboxamido}-1-cyclohexanecarboxylic acid]: in the assay with mice, the “Natriuresis in mouse (i.v.)” value is “inactive at 3 mg/kg”. In assay [1], the biological activity entry is “virtually inactive”.
